Activity calls are given as the source filed them.
Columns and labels:
[1] = target: DNA dC->dU-editing enzyme APOBEC-3A (Homo sapiens, UniProt P31941); test: A3A deaminase inhibition for selectivity – biochemical, dose response (AID 504722); type: functional
[2] = target: DNA dC->dU-editing enzyme APOBEC-3G (Homo sapiens, UniProt Q9HC16); test: Dose Response confirmation of small molecule APOBEC3G DNA Deaminase Inhibitors via a fluorescence-based single-stranded DNA deaminase assay. [Related pubchem assays (depositor defined):AID493012, AID493028]; type: functional
[3] = target: Beta-adrenergic receptor kinase 1 (Homo sapiens, UniProt P25098); test: aptamer displacement from bead-bound GRK2 – biochemical, cherry pick 1, bead flow cytometry, dose response (AID 504500)
[4] = target: T1, Apoptotic protease-activating factor 1 (Homo sapiens, UniProt O14727); test: activation of Apaf-1 mediated apoptosis – fluorescent, uHTS hits, dose response (AID 588554); type: functional
T1 sequence (O14727 whole entry): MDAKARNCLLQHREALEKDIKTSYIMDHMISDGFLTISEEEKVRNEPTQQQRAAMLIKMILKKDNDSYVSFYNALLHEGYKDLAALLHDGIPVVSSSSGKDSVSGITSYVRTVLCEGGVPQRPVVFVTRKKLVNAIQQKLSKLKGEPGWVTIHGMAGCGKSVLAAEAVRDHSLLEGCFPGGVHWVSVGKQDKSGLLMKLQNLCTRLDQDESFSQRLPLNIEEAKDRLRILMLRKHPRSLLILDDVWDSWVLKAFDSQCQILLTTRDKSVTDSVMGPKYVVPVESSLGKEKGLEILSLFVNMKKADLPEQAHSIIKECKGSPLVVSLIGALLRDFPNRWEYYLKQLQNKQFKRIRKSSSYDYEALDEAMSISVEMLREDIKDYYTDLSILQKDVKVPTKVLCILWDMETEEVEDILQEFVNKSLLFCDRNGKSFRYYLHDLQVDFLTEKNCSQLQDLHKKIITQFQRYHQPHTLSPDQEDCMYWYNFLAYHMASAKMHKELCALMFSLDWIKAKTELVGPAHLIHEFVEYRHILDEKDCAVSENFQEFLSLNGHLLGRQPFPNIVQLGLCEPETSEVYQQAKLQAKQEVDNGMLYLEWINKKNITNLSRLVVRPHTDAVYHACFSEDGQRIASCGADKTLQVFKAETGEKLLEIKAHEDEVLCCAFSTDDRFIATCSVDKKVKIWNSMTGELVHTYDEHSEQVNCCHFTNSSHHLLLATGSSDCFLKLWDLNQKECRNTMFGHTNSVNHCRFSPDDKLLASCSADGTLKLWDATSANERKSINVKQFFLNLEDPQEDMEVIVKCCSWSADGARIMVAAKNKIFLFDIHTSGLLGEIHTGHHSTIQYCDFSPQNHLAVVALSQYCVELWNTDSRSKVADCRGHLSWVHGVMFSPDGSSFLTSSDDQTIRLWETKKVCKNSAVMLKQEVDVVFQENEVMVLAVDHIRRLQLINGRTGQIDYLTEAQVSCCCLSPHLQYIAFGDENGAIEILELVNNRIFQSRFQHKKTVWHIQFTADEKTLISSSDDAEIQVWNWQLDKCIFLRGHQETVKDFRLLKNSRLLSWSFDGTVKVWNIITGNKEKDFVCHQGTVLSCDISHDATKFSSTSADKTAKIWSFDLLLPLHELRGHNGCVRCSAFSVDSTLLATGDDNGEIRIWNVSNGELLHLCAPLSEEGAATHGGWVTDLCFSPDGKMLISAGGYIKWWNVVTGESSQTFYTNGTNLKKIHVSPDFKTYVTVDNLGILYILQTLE

[5] = target: T2, Carboxy-terminal domain RNA polymerase II polypeptide A small phosphatase 1 (Homo sapiens, UniProt Q9GZU7); test: CTDSP1 inhibitors, concentration-response, biochemical, absorbance readout, ultra-high-throughput screen actives (AID 540297); type: functional
T2 sequence (Q9GZU7 whole entry): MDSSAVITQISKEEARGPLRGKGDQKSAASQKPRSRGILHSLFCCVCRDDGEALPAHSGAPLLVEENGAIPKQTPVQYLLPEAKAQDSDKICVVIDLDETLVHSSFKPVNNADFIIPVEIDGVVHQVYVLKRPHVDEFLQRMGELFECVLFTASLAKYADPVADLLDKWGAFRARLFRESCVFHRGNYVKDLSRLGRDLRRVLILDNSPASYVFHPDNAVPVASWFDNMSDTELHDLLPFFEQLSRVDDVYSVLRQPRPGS

[6] = system: HeLa; test: ATP-based viability loss in HeLa cells – cell-based, CellTiter-Glo luminescence, cherry-pick samples, cytotoxicity control for MITF activator project, dose response (AID 540259); type: functional; details: Homo sapiens
[7] = viability of uninfected HEp-2 cells – cell-based, HTS, cytotoxicity control for RSV inhibitor project, dose response (AID 2410); type: functional; details: human respiratory syncytial virus
[8] = system: Vero; test: cells; type: functional, cell-based; details: Chlorocebus sabaeus
[9] = system: HEK293; test: inhibition of NOD1-driven NF-kB reporter – cell-based, luminescence, uHTS, primary screen (AID 1578); type: functional; details: Homo sapiens
[10] = system: HEK293; test: cells; type: functional, cell-based; details: Homo sapiens
[11] = system: HEK293; test: cells; type: functional, cell-based; details: Homo sapiens; remark: listed apart in the source
[12] = target: Nucleotide-binding oligomerization domain-containing protein 2 (Homo sapiens, UniProt Q9HC29); test: inhibition of NOD2-driven NF-kB reporter – cell-based, luminescence, uHTS, HEK293 (AID 1566); type: functional
[13] = system: HEK293; test: NOD2 signaling inhibitors in MDP-stimulated cells, cell-based, uHTS, luminescence (AID 2001); type: functional; details: Homo sapiens
[14] = system: HEK293; test: cells; type: functional, cell-based; details: Homo sapiens; remark: listed apart in the source
[15] = target: T3, Microphthalmia-associated transcription factor (Homo sapiens, UniProt O75030); test: reducers of TRPM1 reporter luminescence, concentration series – cell-based, SK-MEL-5, cherry-picked, set 3, MITF inhibitor project, dose response (AID 493073); type: functional;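 further: SK-MEL-5 melanoma cells with luciferase driven by the MITF target TRPM1 promoter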
T3 sequence (O75030 whole entry): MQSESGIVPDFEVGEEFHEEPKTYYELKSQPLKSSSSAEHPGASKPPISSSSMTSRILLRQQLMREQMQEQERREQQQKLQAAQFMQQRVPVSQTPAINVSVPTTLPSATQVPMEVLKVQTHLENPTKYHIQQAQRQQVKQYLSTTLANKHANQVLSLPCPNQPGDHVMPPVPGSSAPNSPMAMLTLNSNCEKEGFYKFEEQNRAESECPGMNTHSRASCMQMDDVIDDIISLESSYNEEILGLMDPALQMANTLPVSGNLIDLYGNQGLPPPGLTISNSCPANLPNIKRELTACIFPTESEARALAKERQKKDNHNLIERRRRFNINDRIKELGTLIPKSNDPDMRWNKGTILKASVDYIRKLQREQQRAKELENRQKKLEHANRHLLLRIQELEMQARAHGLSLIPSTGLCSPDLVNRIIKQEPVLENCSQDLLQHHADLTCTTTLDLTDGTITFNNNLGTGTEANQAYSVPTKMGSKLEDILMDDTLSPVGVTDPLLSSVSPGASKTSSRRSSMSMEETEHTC

[16] = system: HEK293; test: HEK293T cell viability loss, resazurin readout – resazurin fluorescence, cytotoxicity control for NF-kB activator project, SAR follow-up (AID 493251); type: functional, cell-based; details: Homo sapiens
[17] = system: Jurkat; test: SAR Analysis of small molecule inhibitors of T-cell specific antigen receptor-induced NF-kB activation in a Jurkat cell line using a luminescence assay - Set 2. [Related pubchem assays (depositor defined):AID435003, AID435012, AID465]; type: functional, cell-based; details: Homo sapiens
[18] = system: HEK293; test: SAR Analysis of small molecule inhibitors of T-cell specific antigen receptor-induced NF-kB activation in a HEK-293T cell line using a luminescence assay - Set 2. [Related pubchem assays (depositor defined):AID435003, AID435012, AID489026]; type: functional, cell-based; details: Homo sapiens
[19] = target: Dual specificity protein kinase CLK1 (Homo sapiens, UniProt P49759); test: inhibition of human CLK1 activity – biochemical, cherry-picked samples, selectivity assay for Dyrk1A inhibitor project, dose response (AID 588811)
[20] = system: Escherichia coli; test: microbe, parasite or virus in culture

Chain of Dual specificity protein kinase CLK1 (P49759 whole entry): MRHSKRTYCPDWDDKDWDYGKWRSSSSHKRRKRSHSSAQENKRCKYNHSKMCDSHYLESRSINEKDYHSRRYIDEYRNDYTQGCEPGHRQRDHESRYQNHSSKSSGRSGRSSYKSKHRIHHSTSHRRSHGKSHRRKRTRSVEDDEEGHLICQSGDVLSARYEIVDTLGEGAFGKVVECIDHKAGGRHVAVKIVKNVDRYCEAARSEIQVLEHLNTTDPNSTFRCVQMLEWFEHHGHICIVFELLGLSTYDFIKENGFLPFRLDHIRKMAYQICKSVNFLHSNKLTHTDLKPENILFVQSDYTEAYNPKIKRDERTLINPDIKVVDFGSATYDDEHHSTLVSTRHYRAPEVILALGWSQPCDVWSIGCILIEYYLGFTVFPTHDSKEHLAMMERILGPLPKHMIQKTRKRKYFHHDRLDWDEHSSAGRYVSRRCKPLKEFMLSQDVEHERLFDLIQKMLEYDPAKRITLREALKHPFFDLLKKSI
Chain of Beta-adrenergic receptor kinase 1 (P25098 whole entry): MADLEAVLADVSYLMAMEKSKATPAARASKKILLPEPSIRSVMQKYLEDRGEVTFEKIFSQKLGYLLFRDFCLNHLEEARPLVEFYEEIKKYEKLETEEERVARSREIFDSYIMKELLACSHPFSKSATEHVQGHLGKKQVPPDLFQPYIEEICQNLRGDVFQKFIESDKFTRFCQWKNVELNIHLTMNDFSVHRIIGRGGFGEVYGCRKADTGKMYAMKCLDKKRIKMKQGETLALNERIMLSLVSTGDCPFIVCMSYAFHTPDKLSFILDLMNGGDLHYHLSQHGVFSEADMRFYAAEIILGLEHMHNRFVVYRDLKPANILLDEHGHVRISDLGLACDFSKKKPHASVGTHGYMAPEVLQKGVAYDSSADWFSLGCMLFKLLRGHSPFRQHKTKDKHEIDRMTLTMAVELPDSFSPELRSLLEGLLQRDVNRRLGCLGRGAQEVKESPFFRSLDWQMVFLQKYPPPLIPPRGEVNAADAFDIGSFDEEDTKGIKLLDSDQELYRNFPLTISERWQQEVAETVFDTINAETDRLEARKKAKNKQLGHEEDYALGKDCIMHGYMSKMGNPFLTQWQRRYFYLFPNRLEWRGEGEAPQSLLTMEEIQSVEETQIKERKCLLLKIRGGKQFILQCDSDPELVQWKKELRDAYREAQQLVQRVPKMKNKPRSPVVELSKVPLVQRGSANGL
Chain of DNA dC->dU-editing enzyme APOBEC-3G (Q9HC16 whole entry): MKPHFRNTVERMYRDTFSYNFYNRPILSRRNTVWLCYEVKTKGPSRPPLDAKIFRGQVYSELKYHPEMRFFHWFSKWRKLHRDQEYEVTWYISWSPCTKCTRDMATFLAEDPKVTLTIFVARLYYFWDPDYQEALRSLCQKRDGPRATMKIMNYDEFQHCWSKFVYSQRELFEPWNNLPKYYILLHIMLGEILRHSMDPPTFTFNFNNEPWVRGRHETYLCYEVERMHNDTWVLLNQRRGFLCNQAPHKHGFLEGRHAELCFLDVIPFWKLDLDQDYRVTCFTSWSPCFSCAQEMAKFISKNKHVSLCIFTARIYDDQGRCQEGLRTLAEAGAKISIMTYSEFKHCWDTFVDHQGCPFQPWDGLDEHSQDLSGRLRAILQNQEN
Chain of Nucleotide-binding oligomerization domain-containing protein 2 (Q9HC29 whole entry, the tested form may be a part): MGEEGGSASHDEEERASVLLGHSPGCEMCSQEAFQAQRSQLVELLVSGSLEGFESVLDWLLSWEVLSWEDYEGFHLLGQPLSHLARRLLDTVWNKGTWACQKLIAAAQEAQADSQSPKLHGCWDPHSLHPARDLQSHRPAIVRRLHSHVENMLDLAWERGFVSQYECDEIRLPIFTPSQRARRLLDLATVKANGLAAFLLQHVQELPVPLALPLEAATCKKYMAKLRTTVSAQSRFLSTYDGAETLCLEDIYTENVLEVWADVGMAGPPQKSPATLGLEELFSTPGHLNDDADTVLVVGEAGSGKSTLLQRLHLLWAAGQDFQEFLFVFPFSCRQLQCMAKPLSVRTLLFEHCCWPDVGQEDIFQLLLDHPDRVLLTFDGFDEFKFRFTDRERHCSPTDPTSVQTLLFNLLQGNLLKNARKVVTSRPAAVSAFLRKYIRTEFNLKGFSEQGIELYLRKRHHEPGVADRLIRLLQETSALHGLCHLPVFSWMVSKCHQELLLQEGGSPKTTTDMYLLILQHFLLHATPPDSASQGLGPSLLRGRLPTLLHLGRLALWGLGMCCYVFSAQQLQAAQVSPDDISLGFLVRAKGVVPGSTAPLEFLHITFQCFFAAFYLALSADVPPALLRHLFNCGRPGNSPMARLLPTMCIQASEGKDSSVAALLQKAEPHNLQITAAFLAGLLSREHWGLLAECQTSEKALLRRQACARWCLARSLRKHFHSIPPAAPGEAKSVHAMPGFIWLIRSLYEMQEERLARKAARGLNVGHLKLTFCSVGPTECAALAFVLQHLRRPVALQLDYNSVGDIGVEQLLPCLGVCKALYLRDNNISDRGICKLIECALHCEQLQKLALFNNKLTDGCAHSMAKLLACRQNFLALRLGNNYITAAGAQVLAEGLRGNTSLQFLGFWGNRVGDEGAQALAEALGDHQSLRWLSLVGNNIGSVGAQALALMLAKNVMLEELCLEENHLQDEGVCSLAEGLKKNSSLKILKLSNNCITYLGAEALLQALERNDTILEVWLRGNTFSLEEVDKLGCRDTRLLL
Chain of DNA dC->dU-editing enzyme APOBEC-3A (P31941 whole entry): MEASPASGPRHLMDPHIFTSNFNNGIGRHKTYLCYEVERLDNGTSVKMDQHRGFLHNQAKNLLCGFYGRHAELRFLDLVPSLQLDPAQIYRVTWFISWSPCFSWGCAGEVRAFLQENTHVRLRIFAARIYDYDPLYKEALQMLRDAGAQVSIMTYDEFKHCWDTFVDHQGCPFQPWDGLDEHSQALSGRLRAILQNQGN

Structure (SMILES): C=C(C)C(=O)Nc1cccc(C2=NOC3(C2)C[C@H](C(N)=O)N(C(=O)c2ccccc2)C3)c1 (stereo not given in full)
- IC50 [1]: > 100 µM (inactive)
- IC50 [2]: 14.3 µM (active)
- EC50 [3]: 12.5 µM (inactive)
- EC50 [4]: 17.1 µM (active)
- IC50 [5]: 3.85 µM (active)

Structure (SMILES): CC1CCN(c2oc(-c3ccccc3Cl)nc2C#N)CC1
- AC50 [6]: 73 µM (active)

Structure (SMILES): CC(Sc1nnc(Nc2ccccc2)s1)C(=O)Nc1nc(-c2ccccc2)cs1 (stereo not given)
- CC50 [7]: > 50 µM (active)
- IC50 [8]: > 25 µM (active)

Structure (SMILES): O=C(Nc1ccc2oc(-c3cccnc3)nc2c1)c1ccc([N+](=O)[O-])o1
- EC50 [9]: 7.26 µM (active)
- IC50 [10]: 4.02 µM (active)
- IC50 [11]: > 20 µM (inactive)
- EC50 [12]: > 20 µM (inactive)
- IC50 [13]: 7.39 µM (active)
- IC50 [14]: > 20 µM (inactive)
- AC50 [15]: 14.2 µM (active)
- IC50 [16]: > 80 µM (inactive)
- IC50 [17]: 38.7 µM (inactive)
- IC50 [18]: 51.5 µM (inactive)

Structure (SMILES): Fc1c(-c2ccc3ncnc(NCc4cccs4)c3c2)ccc2c1OCO2
- AC50 [19]: 0.057 µM (active)

Structure (SMILES): Cc1cc(Cl)c(S(=O)(=O)NC(C(=O)O)C(C)C)cc1OCC(=O)NC1CCCCC1 (stereo not given)
- AC50 [20]: 25.9 µM (active)

Reference: ChEMBL document CHEMBL1201862, “PubChem BioAssay data set” (2004)
